Laboratory results as given in PMC10763615, “Identification and engineering of potent cyclic peptides with selective or promiscuous binding through biochemical profiling and bioinformatic data analysis” (RSC Chemical Biology, 2023).

Assays:
FGF-R1C ECD = target: T1, FGF-R1C ECD (Homo sapiens, UniProt P11362); assay: biochemical
T1 sequence (P11362 22-376 limits assumed): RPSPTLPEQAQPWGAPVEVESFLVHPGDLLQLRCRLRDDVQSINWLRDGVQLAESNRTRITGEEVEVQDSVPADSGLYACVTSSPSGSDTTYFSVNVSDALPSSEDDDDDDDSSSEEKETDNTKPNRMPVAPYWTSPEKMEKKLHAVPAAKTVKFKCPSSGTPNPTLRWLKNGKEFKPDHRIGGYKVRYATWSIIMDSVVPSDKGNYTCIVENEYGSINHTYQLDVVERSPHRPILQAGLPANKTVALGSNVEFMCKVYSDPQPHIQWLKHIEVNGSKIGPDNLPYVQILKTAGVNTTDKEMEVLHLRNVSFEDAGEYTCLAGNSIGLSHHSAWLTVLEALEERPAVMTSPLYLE
Method: (§1) KD affinity binding measurements were obtained by biolayer interferometry (BLI) instruments (Fortebio Octet HTX, or Sartorius Octet RH16 using either 8 or 16 channel mode.
(§2) For single concentration binding experiments, 50 μM peptide stocks in folding buffer were diluted 1:50 in mRNA display selection buffer (PBS pH7.4 supplemented with 0.05% Tween-20 and 0.01% BSA) in either a 96 well black plate, or a 384 well tilted bottom microplate (ForteBio). Biotinylated FGF-R protein was loaded onto Streptavidin-functionalised biosensors (ForteBio) and immersed into ~1 μM peptide to obtain association kinetics curves. Dissociation kinetics curves were obtained by subsequent immersion of ligand-associated loaded sensors into a 1:50 dilution of folding buffer in mRNA display selection buffer. Fitted KD data was adjusted for concentration as determined by UPLC-CAD.
(§3) For accurate multi-concentration KD determination, dilution series of each peptide were made, and association and dissociation kinetics curves were obtained as above for each concentration to fit a multi-point KD binding model. Data collection and analysis was performed using the Octet Instrument Control […]
(§4) concentration assay kinetics curves shown in supplementary Figure S 19-24.

FGF-R3C ECD = target: T2, FGF-R3C ECD (Homo sapiens, UniProt P22607); assay: biochemical
T2 sequence (P22607 23-375 limits assumed): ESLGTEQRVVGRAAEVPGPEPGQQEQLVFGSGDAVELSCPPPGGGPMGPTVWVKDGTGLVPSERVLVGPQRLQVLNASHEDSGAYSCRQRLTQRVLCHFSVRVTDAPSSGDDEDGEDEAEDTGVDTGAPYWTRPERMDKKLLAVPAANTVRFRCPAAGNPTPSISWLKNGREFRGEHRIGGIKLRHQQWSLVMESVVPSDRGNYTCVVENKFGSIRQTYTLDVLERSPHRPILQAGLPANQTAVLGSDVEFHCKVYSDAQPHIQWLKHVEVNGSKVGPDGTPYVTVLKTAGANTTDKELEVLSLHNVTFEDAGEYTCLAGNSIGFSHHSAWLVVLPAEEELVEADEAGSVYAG
Method: as §1, §2, §3, §4

FGF-R4 ECD = target: T3, FGF-R4 ECD (Homo sapiens, UniProt P22455); assay: multi-concentration BLI of purified peptides; assay type: binding; settings: purified trimer-18 library peptides
T3 construct: DNA constructs for the extracellular domain (ECD) of human FGF-; HPC4 (C); made in house; host or cells: HEK 293-6E
T3 sequence (P22455 22-369 limits assumed): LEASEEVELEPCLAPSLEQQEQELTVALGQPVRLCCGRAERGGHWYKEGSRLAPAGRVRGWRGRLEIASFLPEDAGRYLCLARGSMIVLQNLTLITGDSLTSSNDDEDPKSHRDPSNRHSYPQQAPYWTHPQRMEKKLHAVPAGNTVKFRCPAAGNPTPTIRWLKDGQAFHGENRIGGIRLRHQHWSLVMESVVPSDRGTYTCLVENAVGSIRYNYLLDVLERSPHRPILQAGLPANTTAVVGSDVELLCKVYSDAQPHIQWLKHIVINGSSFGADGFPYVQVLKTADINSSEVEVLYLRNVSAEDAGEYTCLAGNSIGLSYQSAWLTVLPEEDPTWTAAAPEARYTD
Method: as §1, §2, §3, §4

Compound	Kd (FGF-R1C ECD) [nM]	Kd (FGF-R3C ECD) [nM]	Kd (FGF-R4 ECD) [nM]	R4 KD (nM) (FGF-R4 ECD)
CSCC[C@H](NC(C)=O)C(=O)N[C@H]1CSSC[C@@H](C(=O)NCC(=O)N[C@@H](CO)C(=O)NCC(=O)N[C@@H](CO)C(=O)N[C@@H](CC(=O)O)C(=O)N[C@@H](Cc2ccc(O)cc2)C(=O)N[C@@H](CCCCN)C(=O)N[C@@H](CC(=O)O)C(=O)N[C@@H](CC(=O)O)C(=O)N[C@@H](CC(=O)O)C(=O)N[C@@H](CC(=O)O)C(=O)N[C@@H](CCCCN)C(N)=O)NC(=O)[C@H](CCCNC(=N)N)NC(=O)[C@H](CCCNC(=N)N)NC(=O)[C@H](Cc2c[nH]cn2)NC(=O)[C@H](CO)NC(=O)[C@H](CC(C)C)NC(=O)[C@H](CC(C)C)NC(=O)[C@H](Cc2ccc(O)cc2)NC(=O)[C@H](Cc2ccc(O)cc2)NC(=O)[C@H](Cc2ccc(O)cc2)NC(=O)[C@H](CC(C)C)NC(=O)[C@H](Cc2c[nH]cn2)NC(=O)[C@H](CCC(=O)O)NC1=O [4.23]	> 1000	> 1000	3	–
CSCC[C@H](NC(C)=O)C(=O)N[C@H]1CSSC[C@@H](C(=O)NCC(=O)N[C@@H](CO)C(=O)NCC(=O)N[C@@H](CO)C(=O)N[C@@H](CC(=O)O)C(=O)N[C@@H](Cc2ccc(O)cc2)C(=O)N[C@@H](CCCCN)C(=O)N[C@@H](CC(=O)O)C(=O)N[C@@H](CC(=O)O)C(=O)N[C@@H](CC(=O)O)C(=O)N[C@@H](CC(=O)O)C(=O)N[C@@H](CCCCN)C(N)=O)NC(=O)[C@H](CC(=O)O)NC(=O)[C@H](CCCCN)NC(=O)[C@H](C(C)C)NC(=O)[C@H](Cc2c[nH]c3ccccc23)NC(=O)[C@H](Cc2ccccc2)NC(=O)[C@H](C(C)C)NC(=O)[C@H](Cc2c[nH]cn2)NC(=O)[C@H](CC(C)C)NC(=O)[C@H](CCCCN)NC(=O)[C@H](CCCCN)NC(=O)[C@H](Cc2c[nH]c3ccccc23)NC(=O)[C@H](Cc2ccccc2)NC1=O [4.22]	2	12	< 1	sub-nanomolar
CC[C@H](C)[C@@H]1NC(=O)[C@H](Cc2c[nH]c3ccccc23)NC(=O)[C@H](Cc2ccc(O)cc2)NC(=O)[C@H](CCCCN)NC(=O)[C@H](C(C)C)NC(=O)[C@H](Cc2c[nH]c3ccccc23)NC(=O)[C@H](Cc2ccc(O)cc2)NC(=O)[C@H](CCCCN)NC(=O)[C@H](CC(=O)O)NC(=O)[C@@H](NC(=O)[C@H](CCSC)NC(C)=O)CSSC[C@@H](C(=O)NCC(=O)N[C@@H](CO)C(=O)NCC(=O)N[C@@H](CO)C(=O)N[C@@H](CC(=O)O)C(=O)N[C@@H](Cc2ccc(O)cc2)C(=O)N[C@@H](CCCCN)C(=O)N[C@@H](CC(=O)O)C(=O)N[C@@H](CC(=O)O)C(=O)N[C@@H](CC(=O)O)C(=O)N[C@@H](CC(=O)O)C(=O)N[C@@H](CCCCN)C(N)=O)NC(=O)[C@H](CCCNC(=N)N)NC(=O)[C@H](Cc2c[nH]c3ccccc23)NC(=O)[C@H](C)NC1=O [4.21]	773	509	411	–
CSCC[C@H](NC(C)=O)C(=O)N[C@H]1CSSC[C@@H](C(=O)NCC(=O)N[C@@H](CO)C(=O)NCC(=O)N[C@@H](CO)C(=O)N[C@@H](CC(=O)O)C(=O)N[C@@H](Cc2ccc(O)cc2)C(=O)N[C@@H](CCCCN)C(=O)N[C@@H](CC(=O)O)C(=O)N[C@@H](CC(=O)O)C(=O)N[C@@H](CC(=O)O)C(=O)N[C@@H](CC(=O)O)C(=O)N[C@@H](CCCCN)C(N)=O)NC(=O)[C@H](C)NC(=O)[C@H](CCCCN)NC(=O)[C@H](CCCNC(=N)N)NC(=O)[C@H](Cc2c[nH]c3ccccc23)NC(=O)[C@H](CC(C)C)NC(=O)[C@H](CC(C)C)NC(=O)[C@H](Cc2ccc(O)cc2)NC(=O)[C@H](Cc2ccc(O)cc2)NC(=O)[C@H](Cc2ccccc2)NC(=O)[C@H](CC(C)C)NC(=O)[C@H](CC(=O)O)NC(=O)[C@H](CC(N)=O)NC1=O [4.18]	> 1000	> 1000	602	–
CSCC[C@H](NC(C)=O)C(=O)N[C@H]1CSSC[C@@H](C(=O)NCC(=O)N[C@@H](CO)C(=O)NCC(=O)N[C@@H](CO)C(=O)N[C@@H](CC(=O)O)C(=O)N[C@@H](Cc2ccc(O)cc2)C(=O)N[C@@H](CCCCN)C(=O)N[C@@H](CC(=O)O)C(=O)N[C@@H](CC(=O)O)C(=O)N[C@@H](CC(=O)O)C(=O)N[C@@H](CC(=O)O)C(=O)N[C@@H](CCCCN)C(N)=O)NC(=O)[C@H](CCC(N)=O)NC(=O)[C@H](CCCCN)NC(=O)[C@H](Cc2ccccc2)NC(=O)[C@H](CC(C)C)NC(=O)[C@H](CC(C)C)NC(=O)[C@H](Cc2ccc(O)cc2)NC(=O)[C@H](Cc2ccc(O)cc2)NC(=O)[C@H](Cc2ccc(O)cc2)NC(=O)[C@H](CC(C)C)NC(=O)[C@H](Cc2c[nH]cn2)NC(=O)[C@H](CCCCN)NC(=O)[C@H](CC(N)=O)NC1=O [4.25]	> 1000	> 1000	3	–
CC[C@H](C)[C@@H]1NC(=O)[C@H](Cc2ccccc2)NC(=O)[C@H](CCCCN)NC(=O)[C@H](CC(N)=O)NC(=O)[C@H](Cc2ccc(O)cc2)NC(=O)[C@@H](NC(=O)[C@H](CCSC)NC(C)=O)CSSC[C@@H](C(=O)NCC(=O)N[C@@H](CO)C(=O)NCC(=O)N[C@@H](CO)C(=O)N[C@@H](CC(=O)O)C(=O)N[C@@H](Cc2ccc(O)cc2)C(=O)N[C@@H](CCCCN)C(=O)N[C@@H](CC(=O)O)C(=O)N[C@@H](CC(=O)O)C(=O)N[C@@H](CC(=O)O)C(=O)N[C@@H](CC(=O)O)C(=O)N[C@@H](CCCCN)C(N)=O)NC(=O)[C@H](Cc2ccc(O)cc2)NC(=O)[C@H](CC(C)C)NC(=O)[C@H](C(C)C)NC(=O)[C@H](CCCCN)NC(=O)[C@H](Cc2ccc(O)cc2)NC(=O)[C@H](CC(C)C)NC(=O)[C@H]([C@@H](C)O)NC1=O [4.19]	> 1000	> 1000	790	–
CSCC[C@H](NC(C)=O)C(=O)N[C@H]1CSSC[C@@H](C(=O)NCC(=O)N[C@@H](CO)C(=O)NCC(=O)N[C@@H](CO)C(=O)N[C@@H](CC(=O)O)C(=O)N[C@@H](Cc2ccc(O)cc2)C(=O)N[C@@H](CCCCN)C(=O)N[C@@H](CC(=O)O)C(=O)N[C@@H](CC(=O)O)C(=O)N[C@@H](CC(=O)O)C(=O)N[C@@H](CC(=O)O)C(=O)N[C@@H](CCCCN)C(N)=O)NC(=O)[C@H](Cc2c[nH]c3ccccc23)NC(=O)[C@H](CC(C)C)NC(=O)[C@H](CC(C)C)NC(=O)[C@H](Cc2ccc(O)cc2)NC(=O)[C@H](Cc2ccc(O)cc2)NC(=O)[C@H](Cc2ccccc2)NC(=O)[C@H](CC(C)C)NC(=O)[C@H](C(C)C)NC(=O)[C@H](CCCCN)NC(=O)[C@H](CCCCN)NC(=O)[C@H](CC(N)=O)NC(=O)[C@H](CCC(=O)O)NC1=O [4.20]	> 1000	> 1000	321	–
CSCC[C@H](NC(C)=O)C(=O)N[C@H]1CSSC[C@@H](C(=O)NCC(=O)N[C@@H](CO)C(=O)NCC(=O)N[C@@H](CO)C(=O)N[C@@H](CC(=O)O)C(=O)N[C@@H](Cc2ccc(O)cc2)C(=O)N[C@@H](CCCCN)C(=O)N[C@@H](CC(=O)O)C(=O)N[C@@H](CC(=O)O)C(=O)N[C@@H](CC(=O)O)C(=O)N[C@@H](CC(=O)O)C(=O)N[C@@H](CCCCN)C(N)=O)NC(=O)[C@@H]2CCCN2C(=O)[C@H](CCCNC(=N)N)NC(=O)[C@H](Cc2c[nH]c3ccccc23)NC(=O)[C@@H]2CCCN2C(=O)[C@H](CCC(=O)O)NC(=O)[C@H](Cc2c[nH]cn2)NC(=O)[C@H](Cc2c[nH]c3ccccc23)NC(=O)[C@H](Cc2ccc(O)cc2)NC(=O)[C@H](C)NC(=O)[C@H](CCCCN)NC(=O)[C@H]([C@@H](C)O)NC(=O)[C@H](Cc2ccc(O)cc2)NC1=O [4.24]	> 1000	> 1000	> 1000	–
